Measured values published in patent US20130158362A1 (INFACARE PHARMACEUTICAL CORPORATION, priority 2011, published 2013).
Values joined by “and” are separate entries in the source; they are usually repeats but may differ in a detail not shown here. Equal values may be shown once. “Also recorded” adds a separate entry of the source. Marks after values point to notes of the source that are not given here.

How the values were obtained:
[1] = system: term and late preterm subjects with hyperbilirubinemia; assay: Phase 2b trial: adverse events; assay type: in vivo, human
Excerpt: (§1) Safety measurements included adverse events (AEs), hematology and chemistry laboratory tests, vital sign measurements, physical examinations, dermatological assessments, hearing assessments, ophthalmological assessments, neurological assessments, and quantitative electrocardiograms (ECGs).
Safety population: Defined as all subjects who were enrolled in the clinical study and received IMP. Subjects were summarized according to the treatment received.
Analysis of Safety Parameters: Descriptive statistical methods were used to summarize safety parameters based on the safety population. All treatment-emergent adverse events (TEAEs) were summarized. Tabular summaries were also presented for all TEAEs considered potentially related to the IMP, TEAEs by intensity, serious adverse events (SAEs), and AEs leading to discontinuation.

[2] = system: term and late preterm subjects with hyperbilirubinemia; assay: Phase 2b trial: hematology and chemistry laboratory tests (platelet counts); assay type: in vivo, human; settings: for Platelet counts (mean), Delta: baseline to 48 hours
Excerpt: as §1
(§2) All other safety endpoints (vital sign measurements, hematology and chemistry laboratory tests, physical examination results, ECG results, etc.) were summarized by treatment group and visit. In addition, shift tables were generated for laboratory results comparing postbaseline results with baseline. Similar shift tables were generated for results of vital sign measurements.

[3] = system: term and late preterm subjects with hyperbilirubinemia; assay: Phase 2b trial: dermatological assessment (rash); assay type: in vivo, human
Excerpt: In some embodiments, dermatological examinations comprise the identification of photosensitive reactions if any. Photosensitive reaction may occur with metalloporphyrins and broad spectrum light. Photosensitive reactions include skin rashes.
as §1

[4] = system: term and late preterm subjects with hyperbilirubinemia; assay: Phase 2b trial: vital signs, physical, neurological, audiology and ophthalmological examinations; assay type: in vivo, human
Excerpt: as §1, §2

[5] = system: heme oxygenase; settings: cited from earlier work
[6] = animal studies; doses approximately equivalent to the proposed human dose; cited from earlier work
[7] = 4.5 mg dose, baseline to 48 hours post dose

## tin IV mesoporphyrin IX dichloride [Stannsoporfin]
[1]; 3.0 mg/kg IM
  AE Skin exfoliation: subjects, n (%): 0
  AE Thrombocytopenia: subjects, n (%): 0
  AE Umbilical Hernia: subjects, n (%): 1 (5.6%)
  AE Vomiting: subjects, n (%): 0
[1]; 3.0 mg/kg IM, N = 18
  Total AEs: 16
[1]; 3.0 mg/kg, Rh incompatibility, required transfusion
  serious adverse event Anemia: Outcome: Resolved
[1]; 4.5 mg/kg IM
  # of subjects one AE, n (%): 3 (37.5%)
  AE Anal Abscess: subjects, n (%): 0
  AE Anemia: subjects, n (%): 1 (12.5%)
  AE Bradycardia: subjects, n (%): 1 (12.5%)
  AE CO2 decreased: subjects, n (%): 0
  AE CRP increased: subjects, n (%): 0
  AE Contusion: subjects, n (%): 0
  AE Depressed level consciousness: subjects, n (%): 1 (12.5%)
  AE Diaper dermatitis: subjects, n (%): 0
  AE Erythema toxicum: subjects, n (%): 0
  AE Erythema: subjects, n (%): 1 (12.5%)
  AE Flushing: subjects, n (%): 0
  AE Hemangioma: subjects, n (%): 0
  AE Hemoglobin increased: subjects, n (%): 1 (12.5%)
  AE Hyperbilirubinemia: subjects, n (%): 0
  AE Jaundice: subjects, n (%): 0
  AE Leukocytosis: subjects, n (%): 1 (12.5%)
  AE Meningitis: subjects, n (%): 1 (12.5%)
  AE Oral Candidiasis: subjects, n (%): 0
  AE Rash neonatal: subjects, n (%): 0
  AE Rash papular: subjects, n (%): 0
  AE Rash: subjects, n (%): 0
  AE Seborrhoeic dermatitis: subjects, n (%): 0
  AE Serum Glucose decreased: subjects, n (%): 0
  AE Serum sodium increased: subjects, n (%): 0
  AE Skin exfoliation: subjects, n (%): 0
  AE Thrombocytopenia: subjects, n (%): 1 (12.5%)
  AE Umbilical Hernia: subjects, n (%): 0
  AE Vomiting: subjects, n (%): 0
[1]; 4.5 mg/kg IM, N = 8
  Total AEs: 8
[1]; 4.5 mg/kg, negative cultures
  serious adverse event Meningitis: Outcome: Resolved
[1]; each treatment group
  subjects who experienced at least 1 TEAE: Greater than 30%
[1]; final data
  incidence of TEAEs, 3 stannsoporfin treatment groups versus placebo: no statistically significant differences
[2]; 1.5 mg/kg IM, 48 hours
  Platelet counts (mean): 234.000
[2]; 1.5 mg/kg IM, Day 14
  Platelet counts (mean): 477,000
[2]; 1.5 mg/kg IM
  Platelet counts (mean), Delta: −31,000
[2]; 3.0 mg/kg IM, 48 hours
  Platelet counts (mean): 220,000
[2]; 3.0 mg/kg IM, Day 14
  Platelet counts (mean): 453,000
[2]; 3.0 mg/kg IM
  Platelet counts (mean), Delta: −43,000
[2]; [7]
  Platelet count, individual subjects, % Change: 68.6% and 47.1% and 60.8% and 2.9% and 8.4% and 41.0%
  Platelet count, individual subjects, Delta: −153,000 and −113,000 and −141,000 and −11,000 and −22,000 and −128,000
[2]; 4.5 mg/kg IM, 48 hours
  Platelet counts (mean): 180,000
[2]; 4.5 mg/kg IM, Day 14
  Platelet counts (mean): 441,000
[2]; 4.5 mg/kg IM
  Platelet counts (mean), Delta: −85,000
[2]; 4.5 mg/kg dose, 48 hours post dose (n = 6)
  Platelet count, individual subjects: 70,000* and 127,000† and 91,000** and 368,000 and 240,000 and 184,000†
[2]; 4.5 mg/kg, all subjects, normalized by Day 14
  platelets at 48 hours: moderate drops in platelets
[2]; 1.5 to 4.5 mg/kg IM
  Chemistries, liver function tests and renal function tests: normal
[2]; all stannsoporfin doses, placebo remained stable
  Platelet counts from baseline to 48 hours after administration: decreased
[2]; all test groups
  average platelet counts by day 14: returned to the normal range
[3]; 1.5 mg/kg IM
  Rash and PT, n (% of those with a rash): 2 (66.7%)
  Subjects with any rash, n (%): 3 (17.6%)
  types of rashes observed: Contusion; also recorded: Diaper Dermatitis; also recorded: PT Induced rash*; also recorded: Desquamation; also recorded: Contact Dermatitis
[3]; 3.0 mg/kg IM
  Rash and PT, n (% of those with a rash): 3 (37.5%)
  Subjects with any rash, n (%): 8 (44.4%)
  types of rashes observed: Neonatal Acne; also recorded: Erythema; also recorded: Seborrhea; also recorded: Diaper rash; also recorded: Flushing
[3]; 4.5 mg/kg IM
  Rash and PT, n (%): 1 (12.5%)
  Subjects with any rash, n (%): 1 (13.3%)
  types of rashes observed: Erythema **
[4]; 1.5 to 4.5 mg/kg IM, preliminary data
  effect on vital signs (blood pressure, pulse, respiratory rate, temperature): no effect
[4]; 45 minutes after treatment, no longer observed at 1.5 hours
  mean pulse: decrease in mean pulse
[4]; screening, 48 hours after treatment/hospital discharge, or early termination, all subjects
  audiology examinations: normal
[5]
  inhibition of heme oxygenase: potent competitive inhibitor
[6]
  effects on ECG, central nervous system, cardiovascular, pulmonary and renal functions: no biologically significant effects
